The record followed here is the supplement of paper PMC10307832.

Common to all, as to test: relative viability (nuclei count vs DMSO), 5 days (fraction); higher = more cells survive
Compound in test [1]: C1CCC(CC1)N(CCNCCC2=C3C(=C(C=C2)O)NC(=O)CO3)C(=O)CCNCCC4=CC(=C(C=C4)Cl)Cl [AZ505] + Nc1ncn([C@H]2C[C@H](O)[C@@H](CO)O2)c(=O)n1 [Decitabine] (partner 2 µM)
The procedure, abridged:
(§1)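 A single step with final 0.05% Triton X-100, 1% formaldehyde and 1 ug/ml Hoechst fixed the cells and stained nuclei 5 days after treatment. Lung cancer cell lines in 1536-well plates had been treated by pin tool the day after seeding with one drug alone or a fixed anchor-drug dose plus five library-drug doses (not always all listed) in √10 steps, and nuclei were counted on 4× images. Relative viability is the ratio of nuclei in treated wells to nuclei in vehicle wells, taken as the median of duplicate plates.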

Compound in test [2]: C1CCC(CC1)N(CCNCCC2=C3C(=C(C=C2)O)NC(=O)CO3)C(=O)CCNCCC4=CC(=C(C=C4)Cl)Cl [AZ505] + COc1cc2c(Oc3ccc(NC(=O)C4(C(=O)Nc5ccc(F)cc5)CC4)cc3F)ccnc2cc1OCCCN1CCOCC1 [Foretinib] (partner 0.25 µM)
The procedure, abridged: as §1

Compound in test [3]: Cn1c(=O)n(-c2ccc(C(C)(C)C#N)cc2)c2c3cc(-c4cnc5ccccc5c4)ccc3ncc21 [Dactolisib] + CC1(C)CCC(c2ccc(Cl)cc2)=C(CN2CCN(c3ccc(C(=O)NS(=O)(=O)c4ccc(N[C@H](CCN5CCOCC5)CSc5ccccc5)c(S(=O)(=O)C(F)(F)F)c4)cc3)CC2)C1 [Navitoclax] (partner 0.5 µM)
A digest of the protocol:
as §1

Compound in test [4]: Cn1c(=O)n(-c2ccc(C(C)(C)C#N)cc2)c2c3cc(-c4cnc5ccccc5c4)ccc3ncc21 [Dactolisib] + Nc1ncn([C@H]2C[C@H](O)[C@@H](CO)O2)c(=O)n1 [Decitabine] (partner 2 µM)
The procedure, abridged:
as §1

Consider COR-L23, for which the relative viability in test [1] (first compound 0.08 µM) was found to be 0.378; in test [1] (first compound 0.253 µM), 0.449; in test [1] (first compound 0.8 µM) it was 0.381; in test [1] (first compound 2.53 µM) it was 0.458; in test [1] (first compound 8 µM), 0.443; in test [2] (first compound 0.08 µM) it was 0.878. Also, the relative viability in test [2] (first compound 0.253 µM) is 0.928; in test [2] (first compound 0.8 µM), 0.909; in test [2] (first compound 2.53 µM), 0.863; in test [2] (first compound 8 µM), 0.975; in test [3] (first compound 0.002 µM), 1.14; in test [3] (first compound 0.006325 µM), 0.934. Also, the relative viability in test [3] (first compound 0.02 µM) turned out to be 0.644; in test [3] (first compound 0.06325 µM), 0.238; in test [3] (first compound 0.2 µM), 0.188; in test [4] (first compound 0.002 µM) it was 0.605; in test [4] (first compound 0.006325 µM) it was 0.445; in test [4] (first compound 0.02 µM), 0.32. Also, the results for the relative viability in test [4] (first compound 0.06325 µM) and in test [4] (first compound 0.2 µM) were 0.23 and 0.182, respectively.
For the cell line BEN, the relative viability amounted to 0.714 in test [1] (first compound 0.08 µM); 0.655 in test [1] (first compound 0.253 µM); 0.752 in test [1] (first compound 0.8 µM); 0.768 in test [1] (first compound 2.53 µM); 0.78 in test [1] (first compound 8 µM); 0.612 in test [2] (first compound 0.08 µM). Besides, the relative viability turned out to be 0.644 in test [2] (first compound 0.253 µM); 0.693 in test [2] (first compound 0.8 µM); 0.675 in test [2] (first compound 2.53 µM); 0.833 in test [2] (first compound 8 µM); 0.114 in test [3] (first compound 0.002 µM); 0.0698 in test [3] (first compound 0.006325 µM). For the same cell line, the relative viability in test [3] (first compound 0.02 µM) turned out to be 0.0623; in test [3] (first compound 0.06325 µM) it was 0.0651; in test [3] (first compound 0.2 µM), 0.0432; in test [4] (first compound 0.002 µM), 0.802; in test [4] (first compound 0.006325 µM) it was 0.692; in test [4] (first compound 0.02 µM) it was 0.63. Moreover, the relative viability in test [4] (first compound 0.06325 µM) came out at 0.518; in test [4] (first compound 0.2 µM), 0.41.
Regarding ChaGo-K-1, the relative viability came to 0.51 in test [1] (first compound 0.08 µM); 0.529 in test [1] (first compound 0.253 µM); 0.478 in test [1] (first compound 0.8 µM); 0.541 in test [1] (first compound 2.53 µM); 0.517 in test [1] (first compound 8 µM); 0.936 in test [2] (first compound 0.08 µM). The relative viability amounted to 1.11 in test [2] (first compound 0.253 µM); 0.928 in test [2] (first compound 0.8 µM); 0.951 in test [2] (first compound 2.53 µM); 0.91 in test [2] (first compound 8 µM); 0.92 in test [3] (first compound 0.002 µM); 1.03 in test [3] (first compound 0.006325 µM). The relative viability turned out to be 0.975 in test [3] (first compound 0.02 µM); 1.13 in test [3] (first compound 0.06325 µM); 0.765 in test [3] (first compound 0.2 µM); 0.558 in test [4] (first compound 0.002 µM); 0.541 in test [4] (first compound 0.006325 µM); 0.51 in test [4] (first compound 0.02 µM). The relative viability in test [4] (first compound 0.06325 µM) amounted to 0.527; in test [4] (first compound 0.2 µM), 0.501.
For the cell line LK-2, the relative viability was determined as 0.22 in test [1] (first compound 0.08 µM); 0.32 in test [1] (first compound 0.253 µM); 0.331 in test [1] (first compound 0.8 µM); 0.33 in test [1] (first compound 2.53 µM); 0.329 in test [1] (first compound 8 µM); 1.28 in test [2] (first compound 0.08 µM). Besides, the relative viability was 1.34 in test [2] (first compound 0.253 µM); 1.18 in test [2] (first compound 0.8 µM); 1.08 in test [2] (first compound 2.53 µM); 1.68 in test [2] (first compound 8 µM); 0.773 in test [3] (first compound 0.002 µM); 0.852 in test [3] (first compound 0.006325 µM). Further, the relative viability came out at 0.639 in test [3] (first compound 0.02 µM); 0.381 in test [3] (first compound 0.06325 µM); 0.282 in test [3] (first compound 0.2 µM); 0.347 in test [4] (first compound 0.002 µM); 0.305 in test [4] (first compound 0.006325 µM); 0.335 in test [4] (first compound 0.02 µM). In addition, the relative viability is 0.159 in test [4] (first compound 0.06325 µM) and 0.142 in test [4] (first compound 0.2 µM).
